# Measurements: patent publication US20060216779A1, “Method for the detection of post-translational modification activities and device system for carrying out said method” (priority 2003, published 2006)
# Experiments:
# [1] = measurement of the relative dielectric constant ε of the peptide in water in a measuring capacitor; format: physicochemical; conditions: dissolved in water, 1.14 mM, 4 microlitres, t=23° C.
# Protocol: According to further variant for the detection of posttranslational activities, the dielectric constant (permittivity) of a liquid sample with a sensor is measured. As is evident from FIG. 3A, the sample is located in a detection cell (measuring cell 11) serving as a capacitor. The introduction of a polarizing dielectric between the capacitor plates reduces the electric field intensity in vacuum E0 to P/ε0: E=E0−P/ε0 (4) where […] and P is the induced polarization of the dielectric with dielectric constant ε.
# The polypeptides (S1) or (S2) dissolved in water have been placed as a dielectric between the electrode plates of the measuring capacitor (measuring cell 11), see FIG. 3A. Polypeptide ELDVPIPGRFDRRVSVAAD (S1) is a specific substrate for protein kinase A which catalyses the phosphorylation of serine. Phosphatase PP2B implements the dephosphorylation of serine of the polypeptide ELDVPIPGRFDRRVpSVAAD (S2). […]
# Regarding the detection of peptide modification in tests through the measurement of the relative dielectric constant ε, the following should be added: four microlitres of samples, each containing the polypeptide S1 (unphosphorylated) or S2 (phosphorylated) (table 1), dissolved in water to a concentration of 1.14 mM, are directly introduced between the electrode plates of a measuring capacitor. The dielectric constant ε is measured at a temperature of t=23° C. […]
# [2] = measurement of the frequency shift of an oscillator with the peptide sample as core of the induction coil; format: physicochemical; conditions: 150 μL sample, 1.14M in water, t=22° C., f0=5342.9 kHz; S2 instead of S1
# Excerpt: According to a further variant of the method for the detection of posttranslational activities, the polypeptides (S1) or (S2) dissolved in water and used as substrates are located in a measuring cell with an inductivity of L and a capacitance of C which functions as an oscillator (FIG. 5). The frequency ω can be determined by […] which can be measured to a high degree of accuracy (10^−5).
# For the detection of peptide modification through the measurement of the frequency shift of an oscillator, an experiment was carried out as follows:
# A tube containing 150 μL of samples with unphosphorylated peptide S1 or phosphorylated peptide S2 (concentration […] in water) was placed as the core in an induction coil of an oscillator. Frequency f was measured at temperature t=22° C., f0=5342.9 kHz.
Substance,dielectric constant ε [1],oscillator frequency change [2]
"ELDVPIPGRFDRRVSVAAD [Sensor S1, synthesized polypeptide sensor, specific substrate for protein kinase A]",76,–
ELDVPIPGRFDRRVpSVAAD [Sensor S2],70,distinct reduction in frequency
